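Briefly, cells in 96-well plates were exposed to five compound concentrations for 48 h, and endpoints were estimated by linear interpolation. The concentration for 50% growth inhibition is given as GI50.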 Activity calls are given as the source filed them. No stated cut-off is given here; in the data, active = GI50 up to about 1.1 µM and inactive = higher.
Tests used:
Assay in all cases: DTP human tumour cell line panel, 48 h
NCI-H23 = tested on: NCI-H23
COLO 205 = tested on: COLO 205
SK-MEL-5 = tested on: SK-MEL-5
PC-3 = tested on: PC-3
SF-539 = tested on: SF-539
HT-29 = tested on: HT-29
UACC-257 = tested on: UACC-257
SN12C = tested on: SN12C
OVCAR-4 = tested on: OVCAR-4
CAKI-1 = tested on: CAKI-1
OVCAR-5 = tested on: OVCAR-5
HOP-92 = tested on: HOP-92
SNB-75 = tested on: SNB-75
HCT-15 = tested on: HCT-15
HOP-62 = tested on: HOP-62
DU-145 = tested on: DU-145
OVCAR-3 = tested on: OVCAR-3
RPMI-8226 = tested on: RPMI-8226
UACC-62 = tested on: UACC-62
SR = tested on: SR
Hs-578T = tested on: Hs-578T
MDA-MB-231 = tested on: MDA-MB-231
M14 = tested on: M14
UO-31 = tested on: UO-31
TK-10 = tested on: TK-10
HL-60 = tested on: HL-60
OVCAR-8 = tested on: OVCAR-8
A498 = tested on: A498
A549 = tested on: A549
EKVX = tested on: EKVX
SW-620 = tested on: SW-620
HCT-116 = tested on: HCT-116
BT-549 = tested on: BT-549
MDA-MB-435 = tested on: MDA-MB-435
SF-295 = tested on: SF-295
CCRF-CEM = tested on: CCRF-CEM
SK-OV-3 = tested on: SK-OV-3
U-251 = tested on: U-251
SK-MEL-2 = tested on: SK-MEL-2
HCC 2998 = tested on: HCC 2998
LOX IMVI = tested on: LOX IMVI
MCF7 = tested on: MCF7
SNB-19 = tested on: SNB-19
RXF 393 = tested on: RXF 393
NCI-H460 = tested on: NCI-H460
IGROV-1 = tested on: IGROV-1
NCI/ADR-RES = tested on: NCI/ADR-RES
SF-268 = tested on: SF-268
SK-MEL-28 = tested on: SK-MEL-28
ACHN = tested on: ACHN
MOLT-4 = tested on: MOLT-4
K562 = tested on: K562
KM12 = tested on: KM12
786-0 = tested on: 786-0
NCI-H226 = tested on: NCI-H226
MDA-N = tested on: MDA-N
T47D = tested on: T47D
Malme-3M = tested on: Malme-3M
NCI-H522 = tested on: NCI-H522

SMILES: CN(C)CCCCN1c2ccccc2Sc2cc(N=[N+]=[N-])ccc21
- GI50 (NCI-H23): 9660 nM (inactive)
- GI50 (COLO 205): 1690 nM (inactive)
- GI50 (SK-MEL-5): 1730 nM (inactive)
- GI50 (PC-3): 1860 nM (inactive)
- GI50 (SF-539): 1960 nM (inactive)
- GI50 (HT-29): 1550 nM (inactive)
- GI50 (UACC-257): 1830 nM (inactive)
- GI50 (SN12C): 3480 nM (inactive)
- GI50 (OVCAR-4): 2400 nM (inactive)
- GI50 (CAKI-1): 1840 nM (inactive)
- GI50 (OVCAR-5): 1890 nM (inactive)
- GI50 (HOP-92): 2740 nM (inactive)
- GI50 (SNB-75): 1800 nM (inactive)
- GI50 (HCT-15): 1850 nM
- GI50 (HOP-62): 2280 nM (inactive)
- GI50 (DU-145): 2100 nM (inactive)
- GI50 (OVCAR-3): 1890 nM (inactive)
- GI50 (RPMI-8226): 2380 nM (inactive)
- GI50 (UACC-62): 1850 nM (inactive)
- GI50 (SR): 2540 nM (inactive)
- GI50 (Hs-578T): 3030 nM (inactive)
- GI50 (MDA-MB-231): 1710 nM (inactive)
- GI50 (M14): 1690 nM (inactive)
- GI50 (UO-31): 1830 nM (inactive)
- GI50 (TK-10): 2020 nM (inactive)
- GI50 (HL-60): 2110 nM (inactive)
- GI50 (OVCAR-8): 1690 nM (inactive)
- GI50 (A498): 10000 nM (inactive)
- GI50 (A549): 1790 nM (inactive)
- GI50 (EKVX): 4150 nM (inactive)
- GI50 (SW-620): 1870 nM (inactive)
- GI50 (HCT-116): 1780 nM (inactive)
- GI50 (BT-549): 11000 nM (inactive)
- GI50 (MDA-MB-435): 1670 nM (inactive)
- GI50 (SF-295): 1960 nM (inactive)
- GI50 (CCRF-CEM): 2010 nM (inactive)
- GI50 (SK-OV-3): 2200 nM (inactive)
- GI50 (U-251): 2040 nM (inactive)
- GI50 (SK-MEL-2): 1970 nM (inactive)
- GI50 (HCC 2998): 1890 nM (inactive)
- GI50 (LOX IMVI): 1560 nM (inactive)
- GI50 (MCF7): 1850 nM (inactive)
- GI50 (SNB-19): 5750 nM (inactive)
- GI50 (RXF 393): 3300 nM (inactive)
- GI50 (NCI-H460): 1890 nM (inactive)
- GI50 (IGROV-1): 1730 nM (inactive)
- GI50 (NCI/ADR-RES): 1750 nM (inactive)
- GI50 (SF-268): 2380 nM (inactive)
- GI50 (SK-MEL-28): 1820 nM (inactive)
- GI50 (ACHN): 1990 nM (inactive)
- GI50 (MOLT-4): 1930 nM (inactive)
- GI50 (K562): 1880 nM (inactive)
- GI50 (KM12): 1730 nM (inactive)
- GI50 (786-0): 1690 nM (inactive)
- GI50 (NCI-H226): 3280 nM (inactive)
- GI50 (MDA-N): 1720 nM (inactive)
- GI50 (T47D): 1940 nM (inactive)
- GI50 (Malme-3M): 1820 nM (inactive)
- GI50 (NCI-H522): 1600 nM (inactive)

SMILES: CCCn1c(CN(Cc2nc3ccccc3n2CCC)Cc2nc3ccccc3n2CCC)nc2ccccc21
- GI50 (NCI-H23): 5110 nM (inactive)
- GI50 (COLO 205): 2810 nM (inactive)
- GI50 (SK-MEL-5): 2550 nM (inactive)
- GI50 (PC-3): 3310 nM (inactive)
- GI50 (SF-539): 4200 nM (inactive)
- GI50 (HT-29): 2250 nM (inactive)
- GI50 (UACC-257): 7360 nM (inactive)
- GI50 (SN12C): 2010 nM (inactive)
- GI50 (OVCAR-4): 3730 nM (inactive)
- GI50 (CAKI-1): 2810 nM (inactive)
- GI50 (OVCAR-5): 6070 nM (inactive)
- GI50 (HOP-92): 3030 nM (inactive)
- GI50 (SNB-75): 6790 nM (inactive)
- GI50 (HCT-15): 4390 nM
- GI50 (HOP-62): 10800 nM (inactive)
- GI50 (DU-145): 7830 nM (inactive)
- GI50 (OVCAR-3): 3370 nM (inactive)
- GI50 (RPMI-8226): 2040 nM (inactive)
- GI50 (UACC-62): 3700 nM (inactive)
- GI50 (SR): 2580 nM (inactive)
- GI50 (Hs-578T): 25600 nM (inactive)
- GI50 (MDA-MB-231): 2040 nM (inactive)
- GI50 (M14): 2460 nM (inactive)
- GI50 (UO-31): 2210 nM (inactive)
- GI50 (TK-10): 15700 nM (inactive)
- GI50 (HL-60): 764 nM (active)
- GI50 (OVCAR-8): 2250 nM (inactive)
- GI50 (A498): 4740 nM (inactive)
- GI50 (A549): 2590 nM (inactive)
- GI50 (EKVX): 966 nM (active)
- GI50 (SW-620): 5110 nM (inactive)
- GI50 (HCT-116): 1740 nM (inactive)
- GI50 (BT-549): 5710 nM (inactive)
- GI50 (MDA-MB-435): 3270 nM (inactive)
- GI50 (SF-295): 8550 nM (inactive)
- GI50 (CCRF-CEM): 2760 nM (inactive)
- GI50 (SK-OV-3): 41500 nM (inactive)
- GI50 (U-251): 3970 nM (inactive)
- GI50 (SK-MEL-2): 5690 nM (inactive)
- GI50 (HCC 2998): 5680 nM (inactive)
- GI50 (LOX IMVI): 3700 nM (inactive)
- GI50 (MCF7): 973 nM (active)
- GI50 (SNB-19): 7010 nM (inactive)
- GI50 (RXF 393): 249 nM (active)
- GI50 (NCI-H460): 3270 nM (inactive)
- GI50 (IGROV-1): 1940 nM (inactive)
- GI50 (NCI/ADR-RES): 8690 nM (inactive)
- GI50 (SF-268): 3990 nM (inactive)
- GI50 (SK-MEL-28): 10700 nM (inactive)
- GI50 (ACHN): 2110 nM (inactive)
- GI50 (MOLT-4): 3210 nM (inactive)
- GI50 (K562): 1230 nM (inactive)
- GI50 (KM12): 4680 nM (inactive)
- GI50 (NCI-H226): 6470 nM (inactive)
- GI50 (MDA-N): 2260 nM (inactive)
- GI50 (T47D): 2550 nM (inactive)
- GI50 (Malme-3M): 4940 nM (inactive)
- GI50 (NCI-H522): 4630 nM (inactive)

Reference: ChEMBL document CHEMBL1201862, “PubChem BioAssay data set” (2004)
